Experimental data published in patent US20200237871A1, “METHODS FOR MITIGATING LIVER INJURY AND PROMOTING LIVER HYPERTROPHY, REGENERATION AND CELL ENGRAFTMENT IN CONJUNCTION WITH RADIATION AND/OR RADIOMIMETIC TREATMENTS” (Janssen Pharmaceutica NV, priority 2019, published 2020).
“Also recorded” adds a separate entry of the source.

Legend:
factor VIII (FVIII) = assay: Factor VIII production in plasma and liver of Hemophilia A mice (ELISA, Western blot, mRNA) (Example 6); format: in vivo, mouse
From the text: 8-16-week-old male C57/BL6 mice, 8-16-week-old female and male B6129SF2/J mice (donor for isolating LSECs) and 8-16-week-old female and male Hemophilia mice (F^8tm1Kaz) mice were used in this study. Mice were housed in groups of up to 5 in micro-isolator cages on stainless steel racks (Allentown, Inc., Allentown, N.J.) with a total floor space of 500 cm^2. The cages utilized an external water bottle and a dual feeder rack (Fisher Scientific, Hampton, N.H.). These cages were stored in the storage rack which provided temperature, humidity, and ventilation control to each individual cage (Allentown, Inc.). Bed-o'Cobs ⅛″ (Fisher Scientific) were used as bedding material in each cage.
The methods were identical to Experiment 5 as described above; including the preparation of test articles (solutions of RWJ-800088 and AdHGF), isolation and transplant of LSECs, and Hepatic irradiation.
The livers of mice were irradiated at 50 Gy by using an X-ray irradiator (SARRP). At 24 hours post-irradiation, the LSECs (1×10^6 cells/mouse) were injected to the mouse through tail vein. […]
A tail bleeding test was performed in which the extent of bleeding and time to clotting over the course of 30 minutes was evaluated. FVIII protein levels were evaluated by Western blot and mRNA profiling in the blood and liver to evaluate the extent to which there was engraftment of functioning LSECs that produce FVIII. […]

cirrhotic mice = assay: Extent of radiation induced liver disease (RILD) by SPECT-CT in cirrhotic mice (Example 5); format: in vivo, mouse; details: 50 Gy HIR, RWJ-800088 with LSEC transplants
Method: Male C57BL/6 DPPIV knockout male mice (10-14 weeks) were injected intraperitoneally with carbon tetrachloride (CCl4) twice a week for a minimum of 12 weeks until a maximum of when 5 out of 30 mice perish from the CCl4 injection. Immediately after, the animals were randomly distributed into the experimental groups.
Image-guided external beam irradiation was performed using a small animal radiation research platform (SARRP, Xstrahl Inc., Suwanee, Ga.). Mice were given gastrografin contrast through gavage to improve visualization of the gastrointestinal (GI) tract. […]
The methods were identical to Experiment 4 as described above with the exception that the CCl4 dose was increased to 20% in olive oil over 12 weeks. To evaluate the effect of RWJ-800088+Liver Sinusoidal Endothelial Cells (LSEC), RWJ-800088+Plerixafor (a selective inhibitor of CXCR4 administered pre- and post-irradiation) on radiation induced liver disease as measured by SPECT-CT in cirrhotic mice after single hepatic irradiation (HIR) at 50 Gy. […]
The dosing solution of RWJ-800088 was prepared as described in Experiment 4. […] The number of viral particles and infectious units' ratio was determined by infecting 293 cells at various dilutions, followed by immunocytochemical staining for adenoviral hexons. The infectious titer was calculated from the number of plaques formed per 1,000 viral particles. […]

Substance: methoxypolyethyleneglycol20000-propionyl-L-Isoleucyl-L-Glutamyl-Glycyl-L-Prolyl-L-Threonyl-L-Leucyl-L-Arginyl-L-Glutaminyl-L-2-Naphthylalanyl-L-Leucyl-L-Alanyl-L-Alanyl-L-Arginyl-Sarcosyl-Ne-(methoxypolyethyleneglycol20000-propionyl-L-Isoleucyl-L-Glutamyl-Glycyl-L-Prolyl-L-Threonyl-L-Leucyl-L-Arginyl-L-Glutaminyl-L-2-Naphthyl alanyl-L-Leucyl-L-Alanyl-L-Alanyl-L-Arginyl-Sarcosyl-)-Lysinamide [RWJ-800088]
- levels of Factor VIII mRNA and activated protein in plasma and liver (factor VIII (FVIII); HIR+LSECs+RWJ-800088 treated hemophilia mice): increased levels
- expression of factor VIII (FVIII) by ELISA in plasma and liver compared to non-treated Haemophilia A mice (factor VIII (FVIII); HIR+LSECs+drug): prolonged expression
- protection against RILD (SPECT-CT) (cirrhotic mice): trend toward protection against RILD; also recorded: protected against RILD
